Reference: ChEMBL document CHEMBL4613209, “Quinolone hybrids and their anti-cancer activities: An overview” (Eur J Med Chem, 2019)
In brackets after ≈: the same amount, converted by molar mass.

Tests used:
[1] = test system: MCF7; assay: Cytotoxicity against human MCF7 cells assessed as reduction in cell viability; format: functional, cell-based; details: read-out: TD50 (the source's name)
[2] = test system: HCT-116; assay: Cytotoxicity against human HCT116 cells assessed as reduction in cell viability by SRB assay; format: functional, cell-based
[3] = test system: HL-60; assay: Cytotoxicity against human HL60 cells assessed as reduction in cell viability; format: functional, cell-based
[4] = test system: L1210; assay: Antiproliferative activity against mouse L1210 cells after 24 to 72 hrs by MTT assay; format: functional, cell-based
[5] = test system: Hep 3B2; assay: Cytotoxicity against human Hep3B cells assessed as reduction in cell viability by MTT assay; format: functional, cell-based
[6] = test system: L1210; assay: Antiproliferative activity against mouse L1210 cells by MTT assay; format: functional, cell-based
[7] = test system: SMMC-7721; assay: Cytotoxicity against human SMMC7721 cells assessed as reduction in cell viability by MTT assay; format: functional, cell-based
[8] = Toxicity in mouse xenografted with human MB-9812 cells
[9] = test system: CAPAN-1; assay: Cytotoxicity against human Capan1 cells assessed as reduction in cell viability by MTT assay; format: functional, cell-based
[10] = test system: SMMC-7721; assay: Antiproliferative activity against human SMMC7721 cells after 24 to 72 hrs by MTT assay; format: functional, cell-based
[11] = test system: PC-3; assay: Cytotoxicity against human PC3 cells assessed as reduction in cell viability after 48 hrs by SRB assay; format: functional, cell-based; details: PC-3, 48 h
[12] = test system: L1210; assay: Cytotoxicity against mouse L1210 cells assessed as reduction in cell viability by MTT assay; format: functional, cell-based
[13] = Cytotoxicity against human SW403 cells assessed as reduction in cell viability; format: functional; details: SW-403, read-out: TD50 (the source's name)
[14] = test system: HCT-8; assay: Antiproliferative activity against human HCT8 cells after 48 hrs by MTT assay; format: functional, cell-based; details: HCT-8, 48 h
[15] = test system: HL-60; assay: Cytotoxicity against human HL60 cells assessed as reduction in cell viability by MTT assay; format: functional, cell-based
[16] = test system: SMMC-7721; assay: Antiproliferative activity against human SMMC7721 cells by MTT assay; format: functional, cell-based
[17] = test system: KB; assay: Cytotoxicity against human KB cells assessed as reduction in cell viability; format: functional; details: read-out: TD50 (the source's name)
[18] = test system: HL-60; assay: Antiproliferative activity against human HL60 cells after 24 to 72 hrs by MTT assay; format: functional, cell-based
[19] = test system: Hep 3B2; assay: Cytotoxicity against human Hep3B cells assessed as reduction in cell viability; format: functional, cell-based
[20] = test system: SMMC-7721; assay: Cytotoxicity against human SMMC7721 cells assessed as reduction in cell viability; format: functional, cell-based
[21] = test system: CAPAN-1; assay: Cytotoxicity against human Capan1 cells assessed as reduction in cell viability; format: functional, cell-based
[22] = test system: OVCAR-3; assay: Cytotoxicity against human OVCAR3 cells assessed as reduction in cell viability; format: functional; details: read-out: TD50 (the source's name)
[23] = test system: DU-145; assay: Cytotoxicity against human DU145 cells assessed as reduction in cell viability after 48 hrs by SRB assay; format: functional, cell-based; details: DU-145, 48 h
[24] = test system: L1210; assay: Cytotoxicity against mouse L1210 cells assessed as reduction in cell viability; format: functional, cell-based
[25] = Toxicity in mouse xenografted with human CX-1 cells; details: in vivo

Compound: COc1cccc2c1C(=O)c1c(O)c3c(c(O)c1C2=O)C[C@@](O)(C(=O)CO)C[C@@H]3O[C@H]1C[C@H](N)[C@H](O)[C@H](C)O1 [DOXORUBICIN]
- CC50 [1]: 0.014 to 0.098 µg/mL (≈ 0.0258 to 0.18 µM)
- IC50 [2]: 8.8 nM
- IC50 [3]: 3500 nM
- IC50 [4]: 1700 nM
- IC50 [5]: 1800 to 3500 nM
- IC50 [6]: 4200 nM
- IC50 [7]: 1200 to 2600 nM
- LD50 [8]: 11 mg/kg
- IC50 [9]: 1800 to 3500 nM
- IC50 [10]: 2500 nM
- IC50 [11]: 0.4 µg/mL (≈ 0.736 µM)
- IC50 [12]: 1200 to 2600 nM
- CC50 [13]: 0.014 to 0.098 µg/mL (≈ 0.0258 to 0.18 µM)
- IC50 [14]: 7200 nM
- IC50 [15]: 1200 to 2600 nM
- IC50 [16]: 2300 nM
- CC50 [17]: 0.014 to 0.098 µg/mL (≈ 0.0258 to 0.18 µM)
- IC50 [18]: 3600 nM
- IC50 [19]: 2600 nM
- IC50 [20]: 1600 to 3000 nM
- IC50 [21]: 1700 nM
- CC50 [22]: 0.014 to 0.098 µg/mL (≈ 0.0258 to 0.18 µM)
- IC50 [23]: 0.4 µg/mL (≈ 0.736 µM)
- IC50 [24]: 1600 to 3000 nM
- LD50 [25]: 11 mg/kg
